These results are taken from the Deep4Chem optical property database.

This series in a line: solvent given as SMILES.

For `C[P+]1(c2ccccc2)C2=C(c3ccccc31)S(=O)(=O)c1ccccc12` (configuration not stated), the absorption maximum (in CC#N) was found to be 388 nm, the absorption maximum (in CCO) is listed as 319 nm and the absorption maximum (in ClCCl) turned out to be 395 nm.

As for `CCNc1cc2oc3c/c(=[NH+]\CC)c(C)cc-3c(-c3ccccc3C(=O)OCC)c2cc1C`, the absorption maximum by setting is: (in CC#N) 524 nm; (in CCO) 527 nm; (in CN(C)C=O) 534 nm; (in CO) 530 nm; (in O) 525 nm.

`CCCCOc1c(OC)cc2cc(OC)c(OCCCC)c3c4c(OCCCC)c(OC)cc5cc(OC)c(OCCCC)c(c1c23)c54` gave an absorption maximum (in ClCCl) of 451 nm.

`C1=CC2=CC=CC3C=c4c(cc5cccc6cccc4c65)C(=C1)C23` (configuration not stated) returned an absorption maximum (in ClCCl) of 543 nm.

For the setting “in CCO”, `CC(C)n1c2cc(O)c(F)cc2c(=O)c2cc(F)c(O)cc21` registered an absorption maximum of 379 nm.

As to `N#Cc1ccc(N(c2ccccc2)c2ccc3ccc4c(N(c5ccccc5)c5ccc(C#N)cc5)ccc5ccc2c3c54)cc1`, the absorption maximum (in ClCCl) stood at 407 nm.

`COc1ccc(-n2c3ccccc3c3cc(/C=C/C(=C(C#N)C#N)c4ccccc4)ccc32)cc1`: the absorption maximum is, setting by setting: (in C1CCOC1) 448 nm; (in CC#N) 444 nm; (in CC(C)=O) 445 nm; (in CCOC(C)=O) 443 nm; (in CO) 449 nm; (in CS(C)=O) 454 nm. The absorption maximum runs as follows: (in Cc1ccccc1) 450 nm; (in ClC(Cl)Cl) 459 nm.

Compound `CCCCC(CC)COc1cc(OCC(CC)CCCC)c2c#cc3ccc4sc5ccc(c#cc6cc(c#cc7ccc8sc9ccc(c#cc1c2)cc9c8c7)c(C(CCCC)OCCC)cc6C(CCCC)OCCC)cc5c4c3` (configuration not stated) gave an absorption maximum (in ClCCl) of 333 nm.

Compound `C1=C(c2ccccc2)C(c2ccccc2)=CC1c1ccccc1` gave an absorption maximum (in C1CCOC1) of 290 nm.

For the compound `COc1cc2c(cc1-c1ccc([N+](=O)[O-])cc1)Cc1c3c(c4c(c1-2)-c1cc(OC)c(-c2ccc([N+](=O)[O-])cc2)cc1C4)C(=O)N(CCC(C)C)C3=O`, the absorption maximum (in C1CCOC1) amounted to 409 nm.

Turning to `COc1ccc(-c2c3nc(cc4ccc([nH]4)c(-c4ccc(OC)c(OCC(=O)O)c4)c4nc(cc5ccc2[nH]5)CC4)C=C3)cc1OCC(=O)O`, the absorption maximum (in CS(C)=O) is recorded as 644 nm.

Under “in Cc1ccccc1”, `COc1ccc(N(c2ccccc2)c2cc3ccc4cc(N(c5ccccc5)c5ccc(OC)cc5)cc5ccc(c2)c3c45)cc1` returned an absorption maximum of 453 nm.

Where the note is “in C1CCCCC1”, `C[Si](C)(C)C#Cc1cccc2ccccc12` displayed an absorption maximum of 316 nm.

Regarding `N#Cc1ccc(/C2=C3N=C(C(c4ccccc4)=C/3c3ccccc3)/C(c3ccc(C#N)cc3)=c3\[nH]/c(c(-c4ccccc4)c3-c3ccccc3)=C(/c3ccc(C#N)cc3)C3=N/C(=C(/c4ccc(C#N)cc4)c4[nH]c2c(-c2ccccc2)c4-c2ccccc2)C(c2ccccc2)=C3c2ccccc2)cc1`, the absorption maximum (in ClCCl) is recorded as 704 nm.

As for `COc1ccc(-c2cc3c(ccc(=O)n3C)s2)cc1`, the absorption maximum was 376 nm (in CC#N) and 378 nm (in ClCCl).

Consider `Cc1cc2c(ccc3c[n+](C)c(C)cc32)c[n+]1C`, for which the absorption maximum (in CC#N) was found to be 400 nm.

On to `F[B-]1(F)n2c(c(-c3cccs3)c3c2-c2ccccc2CC3)C=C2C(c3cccs3)=C3CCc4ccccc4C3=[N+]21`, for which, where the note is “in CC#N”, the absorption maximum is given as 636 nm.

Turning to `CC(=O)Nc1cccc2c1C#Cc1c(cccc1C(=O)N(C)C)OCCCO2`, the absorption maximum is recorded as 315 nm (in CC#N) and 318 nm (in ClCCl).

For the setting “in CC#N”, `CCOC(=O)c1c2c3c(cccc3c3cc4ccccc4cc13)N(C)C2=O` gave an absorption maximum of 398 nm.

Where the note is “in ClCCl”, `COc1cc(OC)c2cc(C#N)c(=N)oc2c1` had an absorption maximum of 372 nm.

Under “in Cc1ccccc1”, `Cc1cc(C)c(N(c2ccccc2)c2ccc(S(=O)(=O)c3ccc(S(=O)(=O)c4ccc(N(c5ccccc5)c5c(C)cc(C)cc5C)cc4)cc3)cc2)c(C)c1` showed an absorption maximum of 351 nm.

As to `N#Cc1c(N2CCCCC2)cc(-c2ccc3ccc4cccc5ccc2c3c45)c2c1C(=O)c1ccccc1-2`, under “in C1CCOC1”, the absorption maximum is given as 344 nm.

Consider `COc1ccc(/C=C/c2ccccc2)cc1OC`, for which the absorption maximum (in CC#N) was found to be 321 nm.

For `CC(C)(C)c1ccc(-c2c3c(c(-c4ccc(C(C)(C)C)cc4)c4cc5ccccc5cc24)Cc2c(c(-c4ccc(C(C)(C)C)cc4)c4cc5ccccc5cc4c2-c2ccc(C(C)(C)C)cc2)C3)cc1`, for the setting “in ClCCl”, the absorption maximum came out at 393 nm.

`CCN(C)c1ccc(C2=C3C(C)=CC(/C=C/c4ccc(OCCCN=[N+]=[N-])cc4)=[N+]3[B-](F)(F)n3c(C)cc(C)c32)cc1` returned an absorption maximum (in CO) of 568 nm.

As for `CC(=O)c1c2c(cc3c(N(C)C)cccc13)CCC2`, the absorption maximum runs as follows: (in C1CCCCC1) 314 nm; (in C1CCOC1) 330 nm; (in C1COCCO1) 319 nm; (in CC#N) 316 nm; (in CCO) 334 nm; (in CS(C)=O) 334 nm. This compound also displayed an absorption maximum (in Cc1ccccc1) of 322 nm, an absorption maximum (in ClC(Cl)Cl) of 334 nm and an absorption maximum (in ClCCl) of 334 nm.

Where the note is “in ClCCl”, `C[Si](C)(C)c1ccc(-c2nc3ccccc3n2-c2ccccc2)cc1` gave an absorption maximum of 301 nm.

Turning to `N#Cc1c(N2CCCC2)cc(-c2ccccc2)c2c1C(=O)c1ccccc1-2`, the absorption maximum (in C1CCOC1) was 358 nm.

For the compound `N#Cc1c(-n2nnc3ccc(Cl)cc32)n([C@H]2C[C@H](O)[C@@H](CO)O2)c2ncnc(N)c12`, the absorption maximum (in CO) was determined as 276 nm.

As to `CC1(C)OB(c2cc3ccc4cccc5ccc(c2)c3c45)OC1(C)C`, the absorption maximum (in Cc1ccccc1) was determined as 385 nm.

In turn, `COc1ccc(-c2nc(-c3ccccc3)c(N(C)C)[se]2)cc1` showed an absorption maximum (in ClC(Cl)Cl) of 339 nm.

The compound `COC(=O)c1noc(-c2ccccc2)c1Br` returned an absorption maximum (in C1CCCCC1) of 307 nm.

Consider `CC1=C2C3=C(CCc4ccccc43)C(C)=[N+]2[B-](F)(F)n2c(C)c3c(c21)-c1ccccc1CC3`, for which the absorption maximum (in CC#N) is 559 nm.

In turn, `COC1=[N+]2C(=C(c3ccccc3)c3cc(SC#N)c(OC)n3[B-]2(F)F)C=C1SC#N` yielded an absorption maximum (in CC#N) of 513 nm; an absorption maximum (in CCCCCC) of 518 nm; an absorption maximum (in CCOC(C)=O) of 515 nm; an absorption maximum (in CO) of 512 nm; an absorption maximum (in ClCCl) of 518 nm.

`Clc1ccc2nc3cc4ccccc4cc3c(-c3ccccc3)c2c1` showed an absorption maximum (in ClCCl) of 402 nm.

Take `CCCCn1cc(/C=C/c2cc(=O)oc3cc(C)ccc23)c2ccccc21`: the absorption maximum reads like this: (in CS(C)=O) 414 nm; (in ClC(Cl)Cl) 398 nm.

`COc1ccc(-c2nc3ccccc3nc2/C=C/N2CCCC2)s1`: the absorption maximum (in CC#N) was 456 nm.

Regarding `COc1cc(OC)c2c(c1)C(=O)c1cc(OC)cc(OC)c1-2`, the absorption maximum reads like this: (in C1CCCCC1) 489 nm; (in CC#N) 504 nm; (in CCO) 506 nm.

In the case of `CC(C)C1=c2c(c3[nH]cc(C(C)C)c3c3ccccc23)=[N+]2C1=Cc1c(C(C)C)c3c4ccccc4c4c(C(C)C)c[nH]c4c3n1[B-]2(F)F`, the absorption maximum (in ClC(Cl)Cl) was 727 nm.

On to `Nc1nc2c([nH]c(=O)n2[C@H]2C[C@H](O)[C@@H](CO)O2)c(=O)[nH]1`, for which the absorption maximum (in O) came to 294.99 nm.

In turn, `CN(C)c1ccc(C#Cc2ccc(C#Cc3ccc(C#Cc4ccccc4C#N)cc3C#N)cc2C#N)cc1` yielded an absorption maximum (in C1CCOC1) of 422 nm; an absorption maximum (in CC#N) of 413 nm; an absorption maximum (in CN(C)C=O) of 426 nm; an absorption maximum (in ClC(Cl)Cl) of 425 nm; an absorption maximum (in c1ccccc1) of 426 nm.

For the compound `COc1ccc2c(=O)c3c([nH]c2c1)-c1cc(Cl)ccc1NC3(C)C`, the absorption maximum runs as follows: (in C1CCOC1) 411 nm; (in CC#N) 421 nm; (in CCCCO) 426 nm; (in CCCO) 426 nm; (in CCO) 426 nm; (in CCOC(C)=O) 417 nm. Further, the absorption maximum runs as follows: (in CN(C)C=O) 425 nm; (in CO) 428 nm; (in CS(C)=O) 426 nm; (in Cc1ccccc1) 405 nm; (in ClC(Cl)(Cl)Cl) 419 nm; (in ClCCl) 408 nm. The absorption maximum was 405 nm (in O) and 420 nm (in c1ccccc1).

With `Nc1n[n+]([O-])c2ccccc2[n+]1[O-]`, the absorption maximum (in CC#N) was 477 nm and the absorption maximum (in O) is reported as 457 nm.

On to `c1cc2ccc1-c1ccc(cc1)-c1ccc(s1)-c1ccc(cc1)-c1ccc(cc1)-c1ccc(s1)-c1ccc(cc1)-c1ccc(cc1)-c1ccc-2s1`, for which, for the setting “in C1CCOC1”, the absorption maximum is on record as 346 nm.

`C#Cc1ccc(C#Cc2cnc(C#Cc3ccccc3)nc2)cc1` registered an absorption maximum (in C1CCCCC1) of 325 nm.

`CCN(CC)c1ccc2c(C#N)c(/C=C(\C#N)c3nc4ccccc4s3)c(=O)oc2c1`: the absorption maximum (in C1COCCO1) is listed as 561 nm; the absorption maximum (in CC#N) is listed as 597 nm; the absorption maximum (in CCO) came to 602 nm; the absorption maximum (in CCOC(C)=O) is on record as 568 nm; the absorption maximum (in CN(C)C=O) is listed as 525 nm; the absorption maximum (in CO) was found to be 591 nm. Also, the absorption maximum by setting is: (in CS(C)=O) 531 nm; (in Cc1ccccc1) 560 nm; (in ClCCl) 611 nm.

`CCC1(CC)c2cc(N(C)C)ccc2-c2ccc(C(F)(F)F)cc21` had an absorption maximum (in C1CCCCC1) of 341 nm; an absorption maximum (in CC#N) of 302 nm; an absorption maximum (in CCO) of 342 nm; an absorption maximum (in CCOCC) of 342 nm; an absorption maximum (in CS(C)=O) of 350 nm; an absorption maximum (in ClCCl) of 344 nm. Also, the absorption maximum (in c1ccccc1) was 346 nm.

In turn, `O=S(=O)([O-])c1ccc2c(O)cc(S(=O)(=O)[O-])cc2c1` gave an absorption maximum (in O) of 295 nm.

In turn, `Cc1cc2nc3[nH]c(=O)[nH]c(=O)c3nc2cc1C` came in with an absorption maximum (in CC#N) of 380 nm.

Where the note is “in ClCCl”, `CCCN1c2ccccc2Sc2cc(C#CC3=C4C=CC=[N+]4[B-](F)(F)n4cccc43)ccc21` came in with an absorption maximum of 540 nm.
